Results on two compounds are retold here after US11565003B2, “Mechanical opening of lipid bilayers by molecular nanomachines” (William Marsh Rice University, priority 2016, dated 2023).

The subject of data set [1] is NIH 3T3 cells. Nature of the data set: Two-photon near-infra red activation, PI dye entry, NIH 3T3. Type of data set: cell-based, mouse. The settings on record: NIH 3T3, 1 μM, PI 200 nM. Here is the method: (§1) Two-photon microscopy studies of NIH 3T3 cells were executed on a Nikon E600 upright confocal microscope coupled to a tuneable (710-950 nm Coherent MaiTai) multiphoton source operating at (20%) 240 mW power using a 166 lps scan speed and 128×128 pixel frame resolution for MP-illumination. Images (512×512 pixel, 166 lps) were recorded using a 543 nm (1 mW HeNe) laser combined with a 560 nm long-pass filter to record PI (200 nM) fluorescence and follow the onset of induced necrosis.
(§2) Two photon live cell microscopy studies were also executed on a Nikon E600 upright confocal microscope coupled to a tuneable (710-950 nm Coherent MaiTai) multiphoton source operating at (19.8%) 240 mW power at 720 nm using 166 lines/sec scan speed and 128×128 pixel frame resolution for MP-illumination. An oil immersion Nikon IR objective (×60/1.4 NA) was used. Images (512×512 pixel, 166 l/s) were recorded using a 543 nm (1 mW HeNe) laser combined with a 570 nm long-pass filter to record PI dyes (200 nM). Fluorescence was measured as 2 frame averaged images in order to follow the onset of induced necrosis. Necrosis times have been assigned to detectable PI signals in the nucleolus.

Data set [2] relates to NIH 3T3 cells. Nature of the data set: UV-activated nanomechanical necrosis, live cell confocal microscopy, NIH 3T3. Type of data set: cell-based, mouse. The settings on record: for Time of Full Necrosis / Time of Initial Necrosis / % acceleration for full necrosis: 355 nm UV; for % acceleration for full necrosis: versus UV upon blank cells. Here is the method: (§3) Following the synthetic bilipid vesicle experiments, nanomechanical action upon live cells was studied using confocal microscopy aided by a super-resolution technique called Phase Modulation Nanoscopy. Applicants used two experimental methods. In the first method (Method A), the molecular motors were loaded into the cell media and the imaging was initiated within 5 minutes to 24 hours. In the second method, (Method B), the molecular motors were loaded into the cell media, incubated for 30 minutes to 24 hours, and then washed three times with fresh molecular motor-free media before imaging. […]
(§4) Microscopy cells were seeded in untreated iBibi 100 μL live cell channels and allowed to grow to 40% to 60% confluence, at 37° C. in 5% CO2. At this stage, the medium was replaced and cells were treated with the studied nanomachines and co-stains as appropriate, with 0.1% DMSO (as detailed above) present in the final imaging medium. For live cell imaging, DMEM/F12 media (10% FBS) lacking phenol red was used from this point onwards. Following incubation, where Method B was used, the channels were washed with live cell imaging media and imaged using a purpose build incubator housing the microscope maintaining 37° C., 5% CO2 and 10% humidity.
(§5) All live cell imaging experiments used either NIH 3T3 mouse skin fibroblast cells, PC-3 cells, a grade 3 human prostate adenocarcinoma, or Chinese hamster ovary cells (CHO). These are all well-studied cell lines with discrete morphological compositions. Each molecular machine was used as a stock solution at 0.10 to 1.00 μM with total dimethyl sulfoxide (DMSO) concentrations not exceeding 0.1% in the final cell media in order to avoid unwanted cell membrane permeabilization, the DMSO being required for solubility of the organic nanomachines. All loading experiments are carried out in a light-suppressed manner and the possibility of induced or accelerated uptake due to interaction between the molecular motors and the applied co-stain has been eliminated using a series of individual and reversed loading experiments.
(§6) All experimental imaging parameters (i.e., laser beam size, confocal pinhole size, laser intensity, line scanning speed, scanning area (field of view, FOV), and line averaging sequences) were kept constant throughout the experiments. The accuracy and errors associated with the establishment of accelerated necrosis are determined based on one dual channel imaging sequence, which takes 15 seconds in total. This imaging sequence has been carefully established using untreated live cells.
(§7) Steady state fluorescence images were recorded using a PhMoNa enhanced Leica SP5 II LSCM equipped with a HCX PL APO 63×/1.40 NA LambdaBlue Oil immersion objective. As an initial control experiment to establish the UV-induced cell toxicity threshold, while mitigating voxel exposure and ensuring sufficient laser dwell time, an imaging sequence has been established to monitor cell morphological and physiological changes as a function of time. All experiments used cell-line-determined culture medium containing 0.1% DMSO.
(§8) The applied 100 Hz detection sequence was based on a bidirectional dual-channel continuous scanning method where a minimalistic non-damaging visible laser light (458 nm, 0.2 mW) is used in conjunction with the above detailed UV exposure. This is set as a 2 line/scan accumulation parallel acquisition sequence that is recorded as a function of time. Studied channels correspond to transmission images and UV-induced mitochondrial auto-fluorescence detected at 460 to 550 nm. Applicants further confirmed that the effectiveness of monitoring the UV-activated nanomechanical action on live cells using a conventional CW mercury-arc excitation source equipped with an epi-fluorescence setup consisting of a Zeiss Axiovert 200M inverted microscope, as discussed in FIGS. 18A-C. […]

Data set [3] concerns PC-3 cells. Nature of the data set: UV-activated nanomechanical necrosis, live cell confocal microscopy, PC-3. The settings on record: for selectivity for targeted PC-3 cells over non-targeted control cells (in words): NIH 3T3 and CHO as non-targeted controls; for Time of Full Necrosis / Time of Initial Necrosis / % acceleration for full necrosis: 355 nm UV; for % acceleration for full necrosis: versus UV upon blank cells. Type of data set: cell-based, human. Here is the method: Following the synthetic bilipid vesicle experiments, nanomechanical action upon live cells was studied using confocal microscopy aided by a super-resolution technique called Phase Modulation Nanoscopy. Applicants used two experimental methods. In the first method (Method A), the molecular motors were loaded into the cell media and the imaging was initiated within 5 minutes to 24 hours. In the second method, (Method B), the molecular motors were loaded into the cell media, incubated for 30 minutes to 24 hours, and then washed three times with fresh molecular motor-free media before imaging.
Next, Applicants used the smaller nanomachine, 3. Initial control experiments (blank) were performed without nanomachines being present. UV-induced (355 nm) PC-3 necrosis is not initiated until approximately scan 20 (corresponding to 300 second continuous scanning UV exposure, 400 nJ/voxel total dwell time), characterized by massive disruption and rupture of the mitochondrial network and subsequent well-pronounced auto-fluorescent signal detectable in the nucleoli and nucleus wall (FIG. 7A). This is observable by the nucleoli membrane permeabilization and DNA damage at the onset of necrosis. The UV-induced necrosis reaches final stages at approximately scan 40 (corresponding to 600 seconds) that is consistent with characteristic extracellular membrane rupture and homogenous cytosolic auto-fluorescence, indicating loss of cellular organelle boundaries.
as §4, §5, §6
Steady state fluorescence images were recorded using a PhMoNa enhanced Leica SP5 II LSCM equipped with a HCX PL APO 63×/1.40 NA LambdaBlue Oil immersion objective. As an initial control experiment to establish the UV-induced cell toxicity threshold, while mitigating voxel exposure and ensuring sufficient laser dwell time, an imaging sequence has been established to monitor cell morphological and physiological changes as a function of time. All experiments used cell-line-determined culture medium containing 0.1% DMSO. […]

The test system of data set [4] is PC-3 cells. Nature of the data set: Two-photon near-infra red activation, PI dye entry, PC-3. The settings on record: PC-3, 1 μM, PI 200 nM. Type of data set: cell-based, human. As for the experimental part: as §1, §2
Data set [5] deals with PC-3 cells. Nature of the data set: 24 hours incubation without UV: proliferation and apoptosis (Annexin V, Image Cytometry). Type of data set: cell-based, human. As for the experimental part: When PC-3 cells are loaded at 0.5 or 1.0 μM with 9 or 10, washed three times (Method B) or unwashed (Method A) after 24 hours of incubation, the cells visually appear without major signs of toxicity. However, the cells which had been incubated with 9 or 10 over 24 hours were not dividing as prolifically. The cultures appear to be populated ˜25% less in the presence of 9 and 20% of the cells in 10 compared to control untreated cells (FIGS. 12A-E).
In order to further investigate this point, these cells were collected via gentle centrifugation and re-suspended in fresh PBS and analyzed by Image Cytometry. Using Annexin V, these cells were all confirmed to show signs of apoptosis at 93±5%. This is in contrast to the remaining coverslip surface-bound cells that appear healthy.
These latter types of non-apoptotic cells show identical percentage of necrosis acceleration upon subsequent UV-activation of the cell-surface bound nanomachines compared to their shorter incubation time analogues. Thus, it appears that, upon 24 hour incubation, a noticeable amount of cells have nanomachines 9 and 10 either bound to vital cell membrane channels or transport proteins or they are internalized, subsequently shutting down some natural homeostatic mechanisms that leads to programmed cell death (FIGS. 12A-E). Furthermore, this is not the case with shorter incubation times regardless of whether Method A or B is used.

Data set [6] concerns CHO cells. Nature of the data set: UV-activated nanomechanical necrosis, live cell confocal microscopy, CHO. Type of data set: cell-based, Chinese hamster. The note with it: 355 nm UV; for % acceleration for full necrosis: versus UV upon blank cells. As for the experimental part:
as §3, §4, §5, §6, §7, §8

Where [7] appears, read: NIH 3T3, Method B (washed three times).
[8] abbreviates: PC-3, Method B (washed three times).

Residues, ends and D or L forms follow the SMILES beside them. *: point of attachment. X1 = C[C@@H]1Cc2ccc3ccccc3c2/C1=C1\c2cc(C#CCCN=[N+]=[N-])ccc2Sc2ccc(C#CCCn3cc(C(=O)*)nn3)cc21

Consider `C[C@H](NC(=O)[C@H](CCC(=O)O)NC(=O)CNC(=O)[C@H](CC(=O)O)NC(=O)CCc1cn(CCC#Cc2ccc3c(c2)/C(=C2/c4c(ccc5ccccc45)C[C@H]2C)c2cc(C#CCCN=[N+]=[N-])ccc2S3)nn1)C(N)=O` [Compound 8], for which the “PI dye entry upon two-photon near-infra red illumination (in words)” value in data set [1] and in data set [4] was “resulting in Propidium Iodide (PI) dyes entering” throughout. For the same compound, the “Time of Full Necrosis” value came out at 375 s in data set [2] (NIH 3T3, Method A (no washing)); 360 s in data set [2] (setting [7]); 360 s in data set [3] (PC-3, Method A (no washing)); 360 s in data set [3] (setting [8]). In addition, the “Time of Initial Necrosis” value in data set [2] (NIH 3T3, Method A (no washing)) amounted to 150 s; in data set [2] (setting [7]), 150 s; in data set [3] (PC-3, Method A (no washing)), 150 s; in data set [3] (setting [8]), 150 s. Besides, the “% acceleration for full necrosis” value in data set [2] (NIH 3T3, Method A) is 37.5%; in data set [2] (NIH 3T3, Method B) it was 40%; in data set [3] (PC-3, Method A), 40%; in data set [3] (PC-3, Method B), 40%. Further, in data set [3], the “selectivity for targeted PC-3 cells over non-targeted control cells (in words)” value is “No selectivity was observed”.

As to `CC(C)[C@H](NC(=O)[C@H](CCCNC(=N)N)NC(=O)[C@@H](NC(=O)[C@H](CC(N)=O)NC(=O)[C@H](CO)NC(=O)c1cn(CCC#Cc2ccc3c(c2)/C(=C2/c4c(ccc5ccccc45)C[C@H]2C)c2cc(C#CCCN=[N+]=[N-])ccc2S3)nn1)[C@@H](C)O)C(=O)N[C@@H](C)C(=O)N1CCC[C@H]1C(=O)O` [Compound 10] (X1-SNTRVAP-OH), the “Time of Full Necrosis” value in data set [2] (NIH 3T3, Method A (no washing)) stood at 540 s; in data set [2] (setting [7]), 600 s; in data set [3] (PC-3, Method A (no washing)), 420 s; in data set [3] (setting [8]), 435 s; in data set [6] (Method A (no washing)), 540 s; in data set [6] (Method B (washed three times)) it was 600 s. The “Time of Initial Necrosis” value is given as 270 s in data set [2] (NIH 3T3, Method A (no washing)); 300 s in data set [2] (setting [7]); 195 s in data set [3] (PC-3, Method A (no washing)); 210 s in data set [3] (setting [8]); 270 s in data set [6] (Method A (no washing)); 300 s in data set [6] (Method B (washed three times)). Further, the “% acceleration for full necrosis” value is 10% in data set [2] (NIH 3T3, Method A); 0% in data set [2] (NIH 3T3, Method B); 30% in data set [3] (PC-3, Method A); 27.5% in data set [3] (PC-3, Method B); 10% in data set [6] (Method A); 0% in data set [6] (Method B). Further, the “UV-accelerated nanomechanical necrosis after 24 hours incubation (in words)” value in data set [2] (NIH 3T3, incubated 24 hours) was “less than half the efficiency compared to identical experiments using the targeted PC-3 cells”. Further, the “selectivity for targeted PC-3 cells over non-targeted control cells (in words)” value in data set [3] is “selectively target the PC-3 cell line over CHO cells”. In addition, the “accelerated necrosis upon UV-activation after washing and further 24 hours in rotor free media” value in data set [3] (PC-3, incubated 30 minutes to 4 hours, washed three times, 24 hours rotor free media) is given as 25%. Moreover, the “cultures populated less compared to control untreated cells” value in data set [5] (PC-3, 0.5 or 1.0 μM, 24 hours of incubation, no UV) is 20%. Besides, in data set [5] (PC-3, 24 hours incubation, cells collected from culture media), the “mobilized cells showing signs of apoptosis (Annexin V)” value turned out to be 93±5%.
